3 molecules from patent publication US8735322B2, “Herbicides” (Syngenta Limited, priority 2008, dated 2014) can be followed below.

Data set [1] relates to Alopecurus myosuroides (ALOMY). Kind of data set: Example A pre-emergence herbicidal activity, glasshouse pot test. The data set is classed as in vivo. The following applies: 480 h, rate 500 g/ha, evaluated 20 days later, 100=total damage to plant, 0=no damage to plant. The essentials: (§1)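 Plants in this test are treated one day after sowing, before emergence, with an aqueous spray made from an acetone/surfactant formulation of the active ingredient. They then grow on in the greenhouse, and injury is rated 20 days afterwards, where 0 means no damage and 100 means complete kill.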

In data set [2] the test system is Avena fatua (AVEFA). Described as above. The data set is classed as in vivo. Conditions: 480 h, rate 500 g/ha, evaluated 20 days later, 100=total damage to plant, 0=no damage to plant. The method, boiled down: as §1
Data set [3] concerns Digitaria sanguinalis (DIGSA). Described as above. The data set is classed as in vivo. The following applies: 480 h, rate 500 g/ha, evaluated 20 days later, 100=total damage to plant, 0=no damage to plant. The method, boiled down:
as §1

The test system of data set [4] is Echinochloa crus-galli (ECHCG). The data set is described as above. The data set is classed as in vivo. Conditions: 480 h, rate 500 g/ha, evaluated 20 days later, 100=total damage to plant, 0=no damage to plant. The method, boiled down: as §1
The test system of data set [5] is Lolium perenne (LOLPE). The data set is described as above. The data set is classed as in vivo. Conditions: 480 h, rate 500 g/ha, evaluated 20 days later, 100=total damage to plant, 0=no damage to plant. The method, boiled down: as §1
Data set [6] deals with Setaria faberi (SETFA). The data set is described as above. The data set is classed as in vivo. The following applies: 480 h, rate 500 g/ha, evaluated 20 days later, 100=total damage to plant, 0=no damage to plant. The method, boiled down: as §1
For data set [7], the system named is Alopecurus myosuroides (ALOMY). Kind of data set: Example A post-emergence herbicidal activity, glasshouse pot test. The data set is classed as in vivo. Conditions: 360 h, evaluated 15 days after spraying, read-out: herbicidal damage ALOMY (100=total damage to plant; 0=no damage to plant); for pest or weed control at 500 g/ha: rate 500 g/ha. The essentials:
(§2)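 Test species were sown in standard soil in pots and grown 10 days under controlled glasshouse conditions, then sprayed with an aqueous solution of the active ingredient formulated in acetone with emulsifier/N-methylpyrrolidone/dipropylene glycol monomethyl ether/X-77. Damage was scored 15 days later (0 = none, 100 = total).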

Data set [8] has as its system Avena fatua (AVEFA). The data set is described as above. Conditions: 360 h, evaluated 15 days after spraying, read-out: herbicidal damage AVEFA (100=total damage to plant; 0=no damage to plant); for pest or weed control at 500 g/ha: rate 500 g/ha. The data set is classed as in vivo. The method, boiled down: as §2
Data set [9] has as its system Digitaria sanguinalis (DIGSA). The description is as above. Conditions: 360 h, evaluated 15 days after spraying, read-out: herbicidal damage DIGSA (100=total damage to plant; 0=no damage to plant); for pest or weed control at 500 g/ha: rate 500 g/ha. The data set is classed as in vivo. The essentials: as §2
The subject of data set [10] is Echinochloa crus-galli (ECHCG). The description is as above. The data set is classed as in vivo. Conditions: 360 h, evaluated 15 days after spraying, read-out: herbicidal damage ECHCG (100=total damage to plant; 0=no damage to plant); for pest or weed control at 500 g/ha: rate 500 g/ha. The essentials: as §2
Data set [11] concerns Lolium perenne (LOLPE). The description is as above. The data set is classed as in vivo. Conditions: 360 h, evaluated 15 days after spraying, read-out: herbicidal damage LOLPE (100=total damage to plant; 0=no damage to plant); for pest or weed control at 500 g/ha: rate 500 g/ha. The method, boiled down:
as §2

The subject of data set [12] is Setaria faberi (SETFA). The data set is described as above. Conditions: 360 h, evaluated 15 days after spraying, read-out: herbicidal damage SETFA (100=total damage to plant; 0=no damage to plant); for pest or weed control at 500 g/ha: rate 500 g/ha. The data set is classed as in vivo. The method, boiled down: as §2
Data set [13] has as its system Alopecurus myosuroides (ALOMY). The data set is described as follows: Example B pre-emergence herbicidal activity, glasshouse pot test. Conditions: 312 h, rate 1000 g/ha, evaluated after 13 days, read-out: herbicidal damage ALOMY (100=total damage to plant; 0=no damage to plant). The data set is classed as in vivo. The essentials: (§3)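 After sowing in pots of standard soil, seeds are cultivated one day and then sprayed with the formulated technical ingredient (acetone/water 50:50, 0.5% Tween 20). Evaluation follows after 13 days, scoring 100 for total plant damage and 0 for none.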

For data set [14], the system named is Amaranthus retroflexus (AMARE). The data set is described as above. The data set is classed as in vivo. The following applies: 312 h, rate 1000 g/ha, evaluated after 13 days, read-out: herbicidal damage AMARE (100=total damage to plant; 0=no damage to plant). The essentials: as §3
For data set [15], the system named is Avena fatua (AVEFA). The description is as above. The data set is classed as in vivo. The following applies: 312 h, rate 1000 g/ha, evaluated after 13 days, read-out: herbicidal damage AVEFA (100=total damage to plant; 0=no damage to plant). The method, boiled down:
as §3

In data set [16] the test system is Echinochloa crus-galli (ECHCG). The description is as above. The data set is classed as in vivo. The following applies: 312 h, rate 1000 g/ha, evaluated after 13 days, read-out: herbicidal damage ECHCG (100=total damage to plant; 0=no damage to plant). The essentials: as §3
The test system of data set [17] is Setaria faberi (SETFA). The description is as above. The data set is classed as in vivo. Conditions: 312 h, rate 1000 g/ha, evaluated after 13 days, read-out: herbicidal damage SETFA (100=total damage to plant; 0=no damage to plant). The method, boiled down: as §3
The test system of data set [18] is Solanum nigrum (SOLNI). The description is as above. The data set is classed as in vivo. The following applies: 312 h, rate 1000 g/ha, evaluated after 13 days, read-out: herbicidal damage SOLNI (100=total damage to plant; 0=no damage to plant). The essentials: as §3
The test system of data set [19] is Alopecurus myosuroides (ALOMY). The data set is described as follows: Example B post-emergence herbicidal activity, glasshouse pot test. The data set is classed as in vivo. Conditions: 312 h, rate 1000 g/ha, evaluated after 13 days, read-out: herbicidal damage ALOMY (100=total damage to plant; 0=no damage to plant). The method, boiled down:
(§4)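 Plants grown 8 days in soil pots (glasshouse, 24/16 °C day/night, 14 h light, 65% humidity) were sprayed with aqueous solution of technical active ingredient formulated in acetone/water 50:50 with 0.5% Tween 20. Damage scored after 13 days on 0–100 scale (100 = total damage, 0 = none).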

Data set [20] has as its system Amaranthus retroflexus (AMARE). Described as above. The data set is classed as in vivo. Conditions: 312 h, rate 1000 g/ha, evaluated after 13 days, read-out: herbicidal damage AMARE (100=total damage to plant; 0=no damage to plant). The method, boiled down: as §4
Data set [21] deals with Avena fatua (AVEFA). The description is as above. The data set is classed as in vivo. Conditions: 312 h, rate 1000 g/ha, evaluated after 13 days, read-out: herbicidal damage AVEFA (100=total damage to plant; 0=no damage to plant). The method, boiled down:
as §4

Data set [22] has as its system Echinochloa crus-galli (ECHCG). The data set is described as above. The data set is classed as in vivo. The following applies: 312 h, rate 1000 g/ha, evaluated after 13 days, read-out: herbicidal damage ECHCG (100=total damage to plant; 0=no damage to plant). The essentials:
as §4

Data set [23] relates to Setaria faberi (SETFA). The description is as above. The data set is classed as in vivo. The following applies: 312 h, rate 1000 g/ha, evaluated after 13 days, read-out: herbicidal damage SETFA (100=total damage to plant; 0=no damage to plant). The essentials: as §4
Data set [24] deals with Solanum nigrum (SOLNI). The description is as above. The data set is classed as in vivo. The following applies: 312 h, rate 1000 g/ha, evaluated after 13 days, read-out: herbicidal damage SOLNI (100=total damage to plant; 0=no damage to plant). The essentials: as §4

As for `Cc1cc(C)c(C2=C(O)CC(CC3CCOC3)CC2=O)c(C)c1` (centres unmarked) [Compound A-1, 2-(2,4,6-trimethylphenyl)-5-(tetrahydrofuran-3-ylmethyl)cyclohexane-1,3-dione], the melting point (commonly the temperature of the solid-liquid transition) lay within 62 to 64 °C. Moreover, the pest or weed control at 500 g/ha in data set [1] amounted to 70%. In the data set with Avena fatua (AVEFA) [2], this molecule registered a pest or weed control at 500 g/ha of 40%. In addition, the pest or weed control at 500 g/ha in [3] was 100%. For the same molecule, in data set [4], the pest or weed control at 500 g/ha was 50%. Also, in the data set with Lolium perenne (LOLPE) [5], the pest or weed control at 500 g/ha turned out to be 80%. Besides, the pest or weed control at 500 g/ha with Setaria faberi (SETFA) [6] was 90%. For the same molecule, in [7], the pest or weed control at 500 g/ha was 70%. In addition, in the data set with Avena fatua (AVEFA) [8], the pest or weed control at 500 g/ha stood at 80%. Besides, the pest or weed control at 500 g/ha in [9] is 100%. In addition, in data set [10], the pest or weed control at 500 g/ha is 90%. Further, in the data set with Lolium perenne (LOLPE) [11], the pest or weed control at 500 g/ha is 70%. In the data set on Setaria faberi (SETFA) [12], the pest or weed control at 500 g/ha amounted to 100%.

Turning to `CCc1ccccc1C1=C(O)CC(CC2CCOCC2)CC1=O` (centres unmarked) [Compound A-31], the pest or weed control at 500 g/ha in [1] was found to be 60%; in the data set on Avena fatua (AVEFA) [2], 50%; in [3] it was 100%; in [4], 70%; in the data set with Lolium perenne (LOLPE) [5], 40%; with Setaria faberi (SETFA) [6], 100%. Besides, the pest or weed control at 125 g/ha is 60% in data set [7] (rate 125 g/ha); 60% with Avena fatua (AVEFA) [8] (rate 125 g/ha); 30% in data set [9] (rate 125 g/ha); 50% in data set [10] (rate 125 g/ha); 60% with Lolium perenne (LOLPE) [11] (rate 125 g/ha); 40% in the data set on Setaria faberi (SETFA) [12] (rate 125 g/ha). Moreover, the pest or weed control at 1000 g/ha in data set [13] came to 100%; in data set [14] it was 0%; in the data set on Avena fatua (AVEFA) [15], 40%; in data set [16], 100%; in the data set on Setaria faberi (SETFA) [17], 100%; in the data set with Solanum nigrum (SOLNI) [18], 0%. Moreover, the pest or weed control at 1000 g/ha in [19] was 100%; in data set [20], 0%; in the data set with Avena fatua (AVEFA) [21] it was 90%; in data set [22] it was 100%; in the data set with Setaria faberi (SETFA) [23], 100%; with Solanum nigrum (SOLNI) [24], 0%.

`Cc1cc(C)c(C2=C(OC(=O)C(C)(C)C)CC(CC3CCOC3)CC2=O)c(C)c1` (centres unmarked) [Compound B-1, 2,2-dimethylpropionic acid 3-oxo-5-(tetrahydrofuran-3-ylmethyl)-2-(2,4,6-trimethylphenyl)cyclohex-1-enyl Ester]: the melting point was in the range of 108 to 110 °C. In data set [1], this molecule gave a pest or weed control at 500 g/ha of 90%. The pest or weed control at 500 g/ha in the data set on Avena fatua (AVEFA) [2] was 50%. This molecule yielded a pest or weed control at 500 g/ha in data set [3] of 100%. The same molecule showed a pest or weed control at 500 g/ha in data set [4] of 100%. Further, the pest or weed control at 500 g/ha in the data set on Lolium perenne (LOLPE) [5] was 90%. For the same molecule, the pest or weed control at 500 g/ha in the data set on Setaria faberi (SETFA) [6] was 80%. Moreover, the pest or weed control at 500 g/ha in data set [7] was 50%. For the same molecule, the pest or weed control at 500 g/ha in the data set with Avena fatua (AVEFA) [8] worked out at 0%. Besides, the pest or weed control at 500 g/ha in data set [9] was 90%. Besides, the pest or weed control at 500 g/ha in [10] came to 70%. Also, in the data set with Lolium perenne (LOLPE) [11], the pest or weed control at 500 g/ha was 60%. Moreover, the pest or weed control at 500 g/ha in the data set on Setaria faberi (SETFA) [12] amounted to 80%.
